Where two headings read alike, the source gives them in different places. Ends that are not written are not given here.
What was measured:
Assay type in all cases: cell-based
[1] = tested on: Staphylococcus aureus: ATCC 6538P; conditions: ATCC 6538
Procedure, shortened: (§1)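 MIC and MBC were run by broth microdilution adapted from Hancock cationic-AMP and CLSI methods, in Mueller Hinton broth (+5% lysed horse blood for S. pyogenes) at about 5×10^5 CFU/mL. Peptides came from two-fold 10× stocks (2560–5 μg/mL) and were incubated 16-24 h at 37 °C. For MBC, the MIC well and two more-concentrated wells were plated on MHA for 24 h at 37 °C.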

[2] = tested on: Mycobacterium smegmatis (MC^2155); conditions: Mycobacterium (MC^2155)
Procedure, shortened: as §1

[3] = tested on: Escherichia coli: ATCC 9723H; conditions: ATCC 9723
Procedure, shortened: as §1

[4] = tested on: Pseudomonas aeruginosa: ATCC 10148; conditions: ATCC 10148
Procedure, shortened: as §1

[5] = tested on: Streptococcus pyogenes: unknown strain, hospital isolate; conditions: unknown strain, hospital isolate
Procedure, shortened: as §1

[6] = tested on: Salmonella Enteritidis
From the text: (§2) Putative antimicrobial peptides were synthesized by GeneScript. A-list antimicrobial peptides re-synthesized by GeneScript. P2_CCH, P5_CCH, and P5_CCH_A19K were each synthesized under two conditions: standard synthesis using TFA, and the other with TFA-removal using acetate as a counter-ion. A MIC method, adapted for use with cationic antimicrobial peptides, was used to evaluate MIC antimicrobial activity (Hancock 1999).
(§3) The following data are presented to show the activity (MIC/MBC in μg/mL) of certain antimicrobial peptides described herein relative to a modified/synthetic version having a specified substitution. While data presented in tables above may be presented again, or may be represented in data provided in the tables below, such duplication is believed to assist the reader in readily noting comparisons. Different Run Numbers noted in the following tables denotes experiments conducted on different days, with each run reflecting multiple n values.

[7] = tested on: Salmonella Heidelberg (MDR)
From the text: (§4) The ATCC (American Type Culture Collection) strains received from Cedarlane. Multi drug resistant (MDR) strains, as clinical isolates, were received from the laboratory of Dr. Linda Hoang.
as §2, §3

[8] = tested on: Staphylococcus aureus—ATCC 29213 “wild type”; conditions: for MIC: ATCC 29213
Method: Independent experiments were conducted with different strains of Staphylococcus aureus—ATCC 29213 “wild type”; and Staphylococcus aureus—Methicillin resistant Staphylococcus aureus.
as §4, §2, §3

[9] = tested on: Escherichia coli—Carbapenemase-producing organism; New-Dehli Metallobetalactamase
Method: (§5) Independent experiments were conducted with four strains of E. coli, including ATCC E. coli (Escherichia coli—ATCC 25922 “wild type”); ESBL E. coli (Escherichia coli—Extended spectrum beta-lactamase); CPO E. coli (KPC) (Escherichia coli—Carbapenemase-producing organism; Klebsiella pneumoniae carbapenemase); and CPO E. coli (NDM) (Escherichia coli—Carbapenemase-producing organism; New-Dehli Metallobetalactamase).
as §4, §2, §3

[10] = tested on: Escherichia coli—ATCC 25922 “wild type”
Method: as §5, §4, §2, §3

[11] = tested on: Escherichia coli—Carbapenemase-producing organism; Klebsiella pneumoniae carbapenemase
Method: as §5, §4, §2, §3

[12] = Salmonella Heidelberg (MDR), Run No. 2
[13] = Salmonella Heidelberg (MDR), Run No. 3

Molecule	MIC [1]	MIC [2]	MIC [3]	MIC [4]	MIC [5]	MIC [6]	MIC [7]	MIC [8]	MIC [7, 12]	MIC [7, 13]	MBC [1]	MBC [2]	MBC [3]	MBC [4]	MBC [5]	further results
CC[C@H](C)[C@H](NC(=O)[C@H](CCCCN)NC(=O)[C@H](CCC(=O)O)NC(=O)[C@H](CCCCN)NC(=O)[C@H](CO)NC(=O)[C@H](CCCCN)NC(=O)[C@H](CCCNC(=N)N)NC(=O)[C@H](Cc1ccccc1)NC(=O)[C@H](Cc1ccccc1)NC(=O)[C@H](CC(=O)O)NC(=O)CNC(=O)[C@H](CC(C)C)NC(=O)[C@@H](N)CC(C)C)C(=O)NCC(=O)N[C@@H](CCCCN)C(=O)N[C@@H](CCC(=O)O)C(=O)N[C@@H](Cc1ccccc1)C(=O)N[C@@H](CCCCN)C(=O)N[C@@H](CCCNC(=N)N)C(=O)N[C@H](C(=O)N[C@H](C(=O)N[C@@H](CCC(N)=O)C(=O)N[C@@H](CCCNC(=N)N)C(=O)N[C@H](C(=O)N[C@@H](CCCCN)C(=O)N[C@@H](CC(=O)O)C(=O)N[C@@H](Cc1ccccc1)C(=O)N[C@@H](CC(C)C)C(=O)N[C@@H](CCCNC(=N)N)C(=O)N[C@@H](CC(N)=O)C(=O)N[C@@H](CC(C)C)C(=O)N[C@H](C(=O)N1CCC[C@H]1C(=O)N[C@@H](CCCNC(=N)N)C(=O)N[C@H](C(=O)N[C@@H](CCC(=O)O)C(=O)N[C@@H](CO)C(=O)O)[C@@H](C)O)C(C)C)[C@@H](C)CC)C(C)C)[C@@H](C)CC [LL-37, reference compound]																Minimum Inhibitory Concentration (MIC) ([6]; S. enterica spp. Enteritidis, Gram negative): 64+ ug/mL; Minimum Inhibitory Concentration (MIC) ([8]; S. aureus ATCC 29213, Gram positive): 128+ ug/mL
ALVAKIQKFPVFNTLKLCKLKLRII [P11_CCH_E21K_E23R]						64 µg/mL	128 µg/mL	128 µg/mL								MBC [9]: 128 µg/mL; MBC [10]: 32 µg/mL

Now from value to molecule, other results behind:

MIC [1]	MIC [2]	MIC [3]	MIC [4]	MIC [5]	MIC [6]	MIC [7]	MIC [8]	MIC [7, 12]	MIC [7, 13]	Molecule	MBC [1]	MBC [2]	MBC [3]	MBC [4]	MBC [5]	further results
>256 µg/mL	>256 µg/mL	>256 µg/mL	>256 µg/mL	>256 µg/mL	32 µg/mL	128 µg/mL	64 µg/mL			ALVAKIQKFPVFNTLKLCKLELEII [Peptide P11_CCH]	>256 µg/mL	>256 µg/mL	>256 µg/mL	>256 µg/mL	>256 µg/mL	
					16 µg/mL	32 µg/mL	256 µg/mL	~16? μg/mL	~16? μg/mL	IQRLPVIKMLKLWKLELKII [P13_CCH_N8K_E18K]						MIC [11]: 64 µg/mL; MIC ([9]; CPO E. coli (NDM), Run No. 4): ~64? μg/mL; MIC ([9]; CPO E. coli (NDM), Run No. 5): ~64? μg/mL; MIC [10]: 32 µg/mL
>256 µg/mL	>256 µg/mL	>256 µg/mL	>256 µg/mL	>256 µg/mL	16 µg/mL	32 µg/mL	128 µg/mL	~32? μg/mL	~32? μg/mL	IQRLPVINMLKLWKLELEII [Peptide P13_CCH]	>256 µg/mL	>256 µg/mL	>256 µg/mL	>256 µg/mL	>256 µg/mL	MIC [9]: 256 µg/mL

Source: patent US12280090B2, “Antimicrobial peptides” (priority 2018, dated 2025)
